Measurements published in ChEMBL document CHEMBL1152560, “Substituted 2-arylbenzothiazoles as kinase inhibitors: hit-to-lead optimization” (Bioorg Med Chem, 2009).

Key:
[1] = target: Casein kinase I isoform gamma-2 (Homo sapiens) (UniProt P78368); test: Residual activity of CK1gamma2 at 1 uM by microplate scintillation counting
[2] = target: Glycogen synthase kinase-3 beta (Homo sapiens) (UniProt P49841); test: Residual activity of GSK3-beta at 1 uM by microplate scintillation counting
[3] = target: Tyrosine-protein kinase Fer (Homo sapiens) (UniProt P16591); test: Residual activity of FER at 0.1 uM by microplate scintillation counting
Tyrosine-protein kinase Fer (Homo sapiens), sequence (P16591 whole entry, looked up): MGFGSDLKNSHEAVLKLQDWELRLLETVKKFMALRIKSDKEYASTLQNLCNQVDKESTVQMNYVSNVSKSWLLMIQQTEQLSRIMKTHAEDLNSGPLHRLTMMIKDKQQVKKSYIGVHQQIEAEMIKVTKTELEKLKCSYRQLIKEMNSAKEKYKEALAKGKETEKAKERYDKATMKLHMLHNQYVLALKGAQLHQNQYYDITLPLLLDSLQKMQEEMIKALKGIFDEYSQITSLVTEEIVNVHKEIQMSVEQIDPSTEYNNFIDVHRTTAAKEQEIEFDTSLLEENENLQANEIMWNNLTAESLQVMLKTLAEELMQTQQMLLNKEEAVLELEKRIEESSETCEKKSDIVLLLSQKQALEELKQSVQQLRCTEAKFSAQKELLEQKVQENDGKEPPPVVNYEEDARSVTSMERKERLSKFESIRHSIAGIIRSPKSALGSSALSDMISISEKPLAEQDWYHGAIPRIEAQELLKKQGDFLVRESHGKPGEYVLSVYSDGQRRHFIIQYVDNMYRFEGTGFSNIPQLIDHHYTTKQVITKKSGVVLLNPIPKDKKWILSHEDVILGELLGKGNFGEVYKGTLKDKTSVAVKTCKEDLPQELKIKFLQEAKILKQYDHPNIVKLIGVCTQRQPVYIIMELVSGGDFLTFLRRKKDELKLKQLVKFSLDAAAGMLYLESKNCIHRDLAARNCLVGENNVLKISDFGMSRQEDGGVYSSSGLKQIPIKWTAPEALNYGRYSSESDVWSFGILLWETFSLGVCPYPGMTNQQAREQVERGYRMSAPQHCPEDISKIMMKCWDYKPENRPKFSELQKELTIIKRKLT

[4] = target: Serine/threonine-protein kinase PAK 4 (Homo sapiens) (UniProt O96013); test: Residual activity of PAK4 at 1 uM by microplate scintillation counting
Serine/threonine-protein kinase PAK 4 (Homo sapiens), sequence (O96013 whole entry, looked up): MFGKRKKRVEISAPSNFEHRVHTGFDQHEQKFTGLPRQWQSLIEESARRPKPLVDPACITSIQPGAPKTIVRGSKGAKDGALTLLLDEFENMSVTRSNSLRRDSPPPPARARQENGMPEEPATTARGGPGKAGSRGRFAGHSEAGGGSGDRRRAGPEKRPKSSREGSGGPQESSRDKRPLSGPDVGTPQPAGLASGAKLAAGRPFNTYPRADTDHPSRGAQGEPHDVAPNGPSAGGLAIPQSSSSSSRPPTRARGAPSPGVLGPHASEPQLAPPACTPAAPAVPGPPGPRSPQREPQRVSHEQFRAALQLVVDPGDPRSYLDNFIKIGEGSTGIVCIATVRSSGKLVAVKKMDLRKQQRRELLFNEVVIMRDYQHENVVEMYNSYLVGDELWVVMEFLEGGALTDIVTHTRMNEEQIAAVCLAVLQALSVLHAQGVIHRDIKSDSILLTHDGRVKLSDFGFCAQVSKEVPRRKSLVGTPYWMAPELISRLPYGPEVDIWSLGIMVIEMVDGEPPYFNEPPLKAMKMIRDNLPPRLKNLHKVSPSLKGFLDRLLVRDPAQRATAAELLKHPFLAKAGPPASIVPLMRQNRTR

[5] = target: Focal adhesion kinase 1 (Homo sapiens) (UniProt Q05397); test: Residual activity of FAK at 10 uM by microplate scintillation counting
Focal adhesion kinase 1 (Homo sapiens), sequence (Q05397 2-1052 limits assumed): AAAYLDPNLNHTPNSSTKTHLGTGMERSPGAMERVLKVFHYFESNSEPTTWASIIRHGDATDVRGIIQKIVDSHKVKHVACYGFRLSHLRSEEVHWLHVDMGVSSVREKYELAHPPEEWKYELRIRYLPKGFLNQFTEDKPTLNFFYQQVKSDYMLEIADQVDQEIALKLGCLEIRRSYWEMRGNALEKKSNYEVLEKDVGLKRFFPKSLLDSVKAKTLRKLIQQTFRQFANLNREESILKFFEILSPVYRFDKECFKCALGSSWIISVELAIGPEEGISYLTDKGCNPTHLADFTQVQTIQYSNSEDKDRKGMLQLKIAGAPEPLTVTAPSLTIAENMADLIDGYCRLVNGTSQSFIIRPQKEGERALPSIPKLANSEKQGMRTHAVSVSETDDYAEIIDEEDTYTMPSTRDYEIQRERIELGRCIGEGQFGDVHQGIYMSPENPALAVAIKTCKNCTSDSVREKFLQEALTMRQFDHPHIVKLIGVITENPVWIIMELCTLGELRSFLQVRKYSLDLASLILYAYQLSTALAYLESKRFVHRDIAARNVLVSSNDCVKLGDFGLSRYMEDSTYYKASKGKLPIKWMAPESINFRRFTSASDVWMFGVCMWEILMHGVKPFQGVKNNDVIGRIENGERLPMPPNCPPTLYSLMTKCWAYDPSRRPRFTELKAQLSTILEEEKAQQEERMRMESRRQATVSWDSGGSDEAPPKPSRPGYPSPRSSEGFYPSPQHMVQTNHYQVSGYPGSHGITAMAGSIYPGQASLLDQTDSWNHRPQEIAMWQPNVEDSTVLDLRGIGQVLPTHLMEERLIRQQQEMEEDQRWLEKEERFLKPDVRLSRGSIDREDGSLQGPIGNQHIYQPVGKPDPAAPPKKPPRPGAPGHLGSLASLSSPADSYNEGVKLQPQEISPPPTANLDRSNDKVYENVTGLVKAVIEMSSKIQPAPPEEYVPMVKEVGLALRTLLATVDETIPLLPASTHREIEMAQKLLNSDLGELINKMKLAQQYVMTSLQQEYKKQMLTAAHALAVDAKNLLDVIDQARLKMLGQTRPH

[6] = target: Fibroblast growth factor receptor 2 (Homo sapiens) (UniProt P21802); test: Residual activity of FGFR2 at 10 uM by microplate scintillation counting
[7] = target: T1, Aurora kinase C (Homo sapiens) (UniProt Q9UQB9); test: Residual activity of Aurora-C at 10 uM by microplate scintillation counting
T1 sequence (whole entry): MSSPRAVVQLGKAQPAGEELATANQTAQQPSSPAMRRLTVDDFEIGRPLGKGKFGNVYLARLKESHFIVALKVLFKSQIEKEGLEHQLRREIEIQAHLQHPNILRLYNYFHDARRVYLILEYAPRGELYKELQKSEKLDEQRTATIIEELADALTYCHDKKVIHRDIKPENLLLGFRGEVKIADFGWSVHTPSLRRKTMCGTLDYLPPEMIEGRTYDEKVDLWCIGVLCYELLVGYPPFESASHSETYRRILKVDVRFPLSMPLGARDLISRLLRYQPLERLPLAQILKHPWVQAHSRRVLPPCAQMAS

[8] = target: T2, Activin receptor type-1 (Homo sapiens) (UniProt Q04771); test: Residual activity of ACV-R1 at 0.1 uM by microplate scintillation counting
T2 sequence (whole entry): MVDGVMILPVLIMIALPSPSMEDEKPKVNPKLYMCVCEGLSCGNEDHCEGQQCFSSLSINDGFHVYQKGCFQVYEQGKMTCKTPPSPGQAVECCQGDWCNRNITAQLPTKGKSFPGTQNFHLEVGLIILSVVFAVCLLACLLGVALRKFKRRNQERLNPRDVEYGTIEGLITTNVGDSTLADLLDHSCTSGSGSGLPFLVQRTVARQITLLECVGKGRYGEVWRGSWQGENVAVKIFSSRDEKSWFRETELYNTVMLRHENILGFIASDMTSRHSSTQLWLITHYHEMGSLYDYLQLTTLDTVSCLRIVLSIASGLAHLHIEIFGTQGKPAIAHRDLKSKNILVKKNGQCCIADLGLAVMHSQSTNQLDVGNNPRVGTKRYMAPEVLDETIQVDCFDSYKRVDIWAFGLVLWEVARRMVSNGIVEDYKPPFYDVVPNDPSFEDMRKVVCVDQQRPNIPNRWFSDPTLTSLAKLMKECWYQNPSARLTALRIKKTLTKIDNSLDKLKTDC

[9] = target: T3, NUAK family SNF1-like kinase 1 (Homo sapiens) (UniProt O60285); test: Residual activity of ARK5 at 0.1 uM by microplate scintillation counting
T3 sequence (whole entry): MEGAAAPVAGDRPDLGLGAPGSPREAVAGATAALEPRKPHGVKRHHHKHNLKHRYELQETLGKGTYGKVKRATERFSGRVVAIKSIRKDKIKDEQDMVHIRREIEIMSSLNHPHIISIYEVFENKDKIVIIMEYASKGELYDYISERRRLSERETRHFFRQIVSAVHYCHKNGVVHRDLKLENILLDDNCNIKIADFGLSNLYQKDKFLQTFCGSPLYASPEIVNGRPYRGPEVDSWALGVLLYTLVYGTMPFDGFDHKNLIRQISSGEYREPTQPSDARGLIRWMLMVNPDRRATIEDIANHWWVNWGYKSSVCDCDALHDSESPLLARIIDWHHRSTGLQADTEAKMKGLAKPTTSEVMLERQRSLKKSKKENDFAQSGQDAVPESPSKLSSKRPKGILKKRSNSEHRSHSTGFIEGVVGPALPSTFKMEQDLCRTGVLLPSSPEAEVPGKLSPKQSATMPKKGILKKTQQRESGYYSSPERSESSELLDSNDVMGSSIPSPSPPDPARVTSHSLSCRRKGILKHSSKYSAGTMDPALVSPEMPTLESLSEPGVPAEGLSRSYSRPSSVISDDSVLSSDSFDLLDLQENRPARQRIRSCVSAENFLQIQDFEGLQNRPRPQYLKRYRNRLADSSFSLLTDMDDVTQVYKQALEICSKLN

[10] = target: Mitogen-activated protein kinase 11 (Homo sapiens) (UniProt Q15759); test: Residual activity of p38beta at 0.1 uM by microplate scintillation counting
Mitogen-activated protein kinase 11 (Homo sapiens), sequence (Q15759 whole entry): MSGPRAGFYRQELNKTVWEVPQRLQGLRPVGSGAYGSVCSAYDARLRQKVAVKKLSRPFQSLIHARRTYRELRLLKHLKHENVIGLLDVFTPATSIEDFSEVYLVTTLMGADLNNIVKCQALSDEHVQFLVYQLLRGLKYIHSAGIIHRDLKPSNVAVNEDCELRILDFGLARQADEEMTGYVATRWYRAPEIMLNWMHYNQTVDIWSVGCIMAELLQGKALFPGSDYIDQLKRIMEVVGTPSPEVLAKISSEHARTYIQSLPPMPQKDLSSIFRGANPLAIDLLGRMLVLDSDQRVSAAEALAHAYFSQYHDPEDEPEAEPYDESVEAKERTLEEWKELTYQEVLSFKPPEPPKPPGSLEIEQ

[11] = target: Protein kinase C beta type (Homo sapiens) (UniProt P05771); test: Residual activity of PKCbeta1 at 0.1 uM by microplate scintillation counting
Angiopoietin-1 receptor = Angiopoietin-1 receptor (Homo sapiens, UniProt Q02763); test: Residual activity of TIE2 at 0.1 uM by microplate scintillation counting
Angiopoietin-1 receptor, sequence (Q02763 whole entry): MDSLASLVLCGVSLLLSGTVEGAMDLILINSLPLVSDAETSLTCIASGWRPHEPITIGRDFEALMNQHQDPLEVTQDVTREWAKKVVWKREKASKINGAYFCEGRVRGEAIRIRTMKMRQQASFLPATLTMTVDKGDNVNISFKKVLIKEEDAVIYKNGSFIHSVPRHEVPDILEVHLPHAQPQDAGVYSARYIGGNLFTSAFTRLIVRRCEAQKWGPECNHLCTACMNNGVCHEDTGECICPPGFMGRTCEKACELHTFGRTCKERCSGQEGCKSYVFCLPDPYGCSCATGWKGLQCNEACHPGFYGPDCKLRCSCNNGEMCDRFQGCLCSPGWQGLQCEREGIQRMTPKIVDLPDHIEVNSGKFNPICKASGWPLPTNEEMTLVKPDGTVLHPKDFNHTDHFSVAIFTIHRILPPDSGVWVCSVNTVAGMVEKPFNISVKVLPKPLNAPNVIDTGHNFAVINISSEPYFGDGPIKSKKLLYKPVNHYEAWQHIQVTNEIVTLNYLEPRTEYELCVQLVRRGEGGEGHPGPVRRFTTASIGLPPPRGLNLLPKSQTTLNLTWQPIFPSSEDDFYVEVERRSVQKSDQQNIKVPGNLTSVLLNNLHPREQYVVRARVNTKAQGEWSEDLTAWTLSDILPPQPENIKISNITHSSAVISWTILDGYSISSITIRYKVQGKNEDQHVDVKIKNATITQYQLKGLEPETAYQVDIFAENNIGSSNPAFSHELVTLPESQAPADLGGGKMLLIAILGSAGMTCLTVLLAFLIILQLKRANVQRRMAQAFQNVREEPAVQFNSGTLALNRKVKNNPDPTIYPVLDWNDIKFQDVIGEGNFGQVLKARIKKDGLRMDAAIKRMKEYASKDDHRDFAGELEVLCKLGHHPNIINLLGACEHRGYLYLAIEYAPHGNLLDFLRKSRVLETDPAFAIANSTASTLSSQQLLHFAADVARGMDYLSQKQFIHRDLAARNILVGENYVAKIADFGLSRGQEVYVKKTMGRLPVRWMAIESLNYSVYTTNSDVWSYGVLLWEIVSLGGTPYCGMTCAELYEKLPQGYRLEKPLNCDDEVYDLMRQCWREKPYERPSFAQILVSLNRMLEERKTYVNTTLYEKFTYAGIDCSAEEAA

[12] = target: T4, Testis-specific serine/threonine-protein kinase 1 (Homo sapiens) (UniProt Q9BXA7); test: Residual activity of TSSK1 at 0.1 uM by microplate scintillation counting
T4 sequence (whole entry): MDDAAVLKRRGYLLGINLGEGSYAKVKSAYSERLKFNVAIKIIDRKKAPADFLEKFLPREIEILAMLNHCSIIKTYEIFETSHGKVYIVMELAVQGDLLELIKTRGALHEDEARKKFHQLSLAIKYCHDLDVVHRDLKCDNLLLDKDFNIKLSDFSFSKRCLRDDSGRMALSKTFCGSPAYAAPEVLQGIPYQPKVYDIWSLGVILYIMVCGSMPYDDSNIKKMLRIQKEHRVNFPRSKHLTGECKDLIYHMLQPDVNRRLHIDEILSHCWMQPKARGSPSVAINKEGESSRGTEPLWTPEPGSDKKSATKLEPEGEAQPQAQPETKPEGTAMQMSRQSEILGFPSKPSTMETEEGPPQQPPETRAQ

Casein kinase I isoform gamma-2 (Homo sapiens), sequence (P78368 whole entry, looked up, canonical isoform): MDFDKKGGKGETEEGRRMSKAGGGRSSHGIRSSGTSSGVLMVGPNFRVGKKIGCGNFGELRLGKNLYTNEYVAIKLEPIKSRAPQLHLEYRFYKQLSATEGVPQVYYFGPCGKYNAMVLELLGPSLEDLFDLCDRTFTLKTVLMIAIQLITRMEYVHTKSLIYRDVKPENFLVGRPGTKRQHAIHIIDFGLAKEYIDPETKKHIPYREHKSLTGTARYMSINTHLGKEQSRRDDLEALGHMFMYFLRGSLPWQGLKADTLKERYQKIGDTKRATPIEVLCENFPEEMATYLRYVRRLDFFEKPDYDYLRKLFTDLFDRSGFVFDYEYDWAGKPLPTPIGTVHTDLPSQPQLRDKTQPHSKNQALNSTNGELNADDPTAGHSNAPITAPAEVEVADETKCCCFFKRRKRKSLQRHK
Glycogen synthase kinase-3 beta (Homo sapiens), sequence (P49841 whole entry, looked up): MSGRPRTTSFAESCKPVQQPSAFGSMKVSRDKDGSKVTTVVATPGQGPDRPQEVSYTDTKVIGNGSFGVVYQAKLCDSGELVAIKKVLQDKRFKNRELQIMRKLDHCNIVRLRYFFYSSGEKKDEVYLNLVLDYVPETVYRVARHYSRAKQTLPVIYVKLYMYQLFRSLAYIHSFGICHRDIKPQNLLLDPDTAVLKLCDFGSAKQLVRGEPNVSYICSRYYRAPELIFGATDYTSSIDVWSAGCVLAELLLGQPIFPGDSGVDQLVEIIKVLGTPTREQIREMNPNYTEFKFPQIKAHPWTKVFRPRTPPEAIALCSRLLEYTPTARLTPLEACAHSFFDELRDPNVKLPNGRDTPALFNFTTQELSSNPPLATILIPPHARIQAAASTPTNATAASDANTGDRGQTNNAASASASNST

residual activity [1] [%] | residual activity [2] [%] | residual activity [3] [%] | residual activity [4] [%] | residual activity [5] [%] | residual activity [6] [%] | residual activity [7] [%] | residual activity [8] [%] | residual activity [9] [%] | residual activity [10] [%] | residual activity [11] [%] | residual activity (Angiopoietin-1 receptor) [%] | residual activity [12] [%] | Structure (SMILES)
107 | 91 | 96 | 112 | 93 | 113 | 1 | 91 | 83 | 104 | 102 | 50 | 49 | COc1cc2c(Oc3ccc(-c4nc5ccccc5s4)cc3)ncnc2cc1OCCCN1CCCC1
98 | 84 | 104 | 105 | 93 | 136 | 0 | 89 | 98 | 90 | 100 | 38 | 58 | COc1cc2c(Oc3ccc(-c4nc5ccccc5s4)cc3)ncnc2cc1OCCCN1CCN(C)CC1
100 | 93 | 108 | 99 | 84 | 86 | 2 | 97 | 94 | 105 | 109 | 53 | 65 | COc1cc2c(Oc3ccc(-c4nc5ccccc5s4)cc3F)ncnc2cc1OCCCN1CCN(C)CC1
